The values below come from PubChem BioAssay (NCI).

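A five-concentration, 48-hour dose response in 96-well plates underlies each endpoint, interpolated linearly between surrounding concentrations. GI50: concentration for 50% inhibition of growth. TGI: concentration producing complete growth inhibition.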

The test system of the assay is MDA-MB-468 breast. As to the kind of experiment: NCI tumour cell line growth inhibition, 48 h.
Consider `COC(=O)[C@]12CCC(C)(C)C[C@H]1C1=CC[C@@H]3[C@@]4(C)C/C(=C/c5cccnc5)C(=O)C(C)(C)[C@@H]4CC[C@@]3(C)[C@]1(C)CC2`, for which the GI50 was 12300 nM and the TGI is 47200 nM.

`C[C@]12CC[C@@H]3c4ccc(O)cc4C[C@@H](CCCCCCCCCS(=O)CCCC(F)(F)C(F)(F)F)[C@H]3[C@@H]1CC[C@@H]2O` (some centres undefined): the GI50 is > 100000 nM and the TGI was > 100000 nM.

Regarding `C=C1C(=O)O[C@H]2[C@H]1CC/C(COC(=O)/C=C\C(=O)NCc1ccc(Cn3c(=O)sn(-c4ccc(C#N)cc4)c3=O)cc1)=C\CC[C@@]1(C)O[C@@H]21`, the GI50 was 735 nM and the TGI stood at 1670 nM.

Turning to `O=C(C[C@@H](C(=O)NCc1cccc(C(F)(F)F)c1)N1C(=O)[C@@H](N2C(=O)OC[C@@H]2c2ccccc2)[C@H]1/C=C/c1ccccc1)NC1CCN(Cc2ccccc2)CC1`, the GI50 was 2660 nM and the TGI was 18400 nM.

As to `COc1ccc(C2CC(=O)c3c(O)c(OC)c(OC)c(OC)c3O2)c(O)c1` (centres undefined), the GI50 was 83.1 nM and the TGI stood at 36900 nM.

Take `CC(C)CSc1nc(Nc2ccccc2)c(C#N)c(-c2ccc(F)cc2)n1`: the GI50 was 3070 nM and the TGI stood at 17400 nM.

With `COc1cc(Cn2c(-c3ccccc3)cc3c2-c2oncc2CC3)cc(OC)c1OC`, the GI50 is 298 nM and the TGI was 2210 nM.

Consider `NC(N)=NC(N)=Nc1cc2ccccc2c2ccccc12`, for which the GI50 is 2810 nM and the TGI is 14300 nM.

In the case of `Cc1cc(C)cc(Nc2cc(C)nc3nc(C(F)(F)F)nn23)c1`, the GI50 was 8300 nM and the TGI is > 100000 nM.

On to `COc1ccc(OC(=O)O[C@H]2[C@H](O[C@H]3[C@@H](O)COC(O[C@H]4C[C@H]5[C@@H]6CC=C7C[C@@H](O)CC[C@]7(C)[C@H]6CC[C@]5(C)[C@H]4[C@H](C)C(=O)CCC(C)C)[C@@H]3OC(C)=O)OC[C@@H](O)[C@@H]2O)cc1` (some centres undefined), for which the GI50 is 37.3 nM and the TGI amounted to 4940 nM.

For the compound `CCOC(=O)/C(O)=C(/C=NC(=S)c1ccncc1)C(=O)OCC`, the GI50 was > 100000 nM and the TGI is > 100000 nM.

For `CN1C(=O)N(c2ccccc2)C2N=C(N/N=C/c3ccccc3)SC21` (centres undefined), the GI50 is 510 nM and the TGI is > 100000 nM.

Turning to `CCCNC(=S)N/N=C(\C)c1ccccn1`, the GI50 is < 10 nM and the TGI worked out at 109 nM.

Turning to `CCCCNC(=O)NS(=O)(=O)c1ccc(N2N=C(c3ccc(C)cc3C)CC2c2ccc(N(C)C)cc2)cc1` (centres undefined), the GI50 is 2220 nM and the TGI was determined as 5820 nM.

For `Cn1cc(C2=C(c3cn(C)c4c(N)cccc34)C(=O)NC2=O)c2ccccc21`, the GI50 is 1280 nM and the TGI is > 25000 nM.

On to `COc1ccc(-n2c(SCc3cc(OC)c(OC)c(OC)c3)nc3ccc(C)cc3c2=O)cc1`, for which the GI50 is 3390 nM and the TGI came to 48300 nM.

Take `COc1cc([C@@H]2c3cc4c(cc3C(O[C@@H]3O[C@@H]5CO[C@@H](c6cccs6)OC5[C@H](O)[C@H]3O)C3COC(=O)[C@@H]32)OCO4)cc(OC)c1O` (some centres undefined): the GI50 is 91.4 nM and the TGI was 302 nM.

For the compound `COc1cc(-c2c(C#N)c(N)n3c(nc4ccccc43)c2C#N)cc(Br)c1OC`, the GI50 is 5540 nM and the TGI was > 100000 nM.

With `CC[C@H](C)[C@H](NC(=O)[C@H]1CCCCN1C)C(=O)N(C)[C@H](CCc1nc(C(=O)N[C@@H](Cc2ccccc2)C[C@H](C)C(=O)OC)cs1)C(C)C`, the GI50 is 69.6 nM.

As for `Nc1nccc(-c2c(-c3ccc(F)cc3)ncn2CCCN2CCOCC2)n1`, the GI50 is > 6390 nM and the TGI was > 25000 nM.

`O=C(CCCSc1nc(-c2ccc(Cl)cc2)cc(-c2ccc(Cl)cc2)n1)NO`: the GI50 is 1420 nM and the TGI stood at 3480 nM.

For `COc1ccc(S(=O)(=O)N(Cc2ccc3c(n2)C=CC(C)(C)O3)C2CCC2)cc1OC`, the GI50 was < 10 nM and the TGI is < 10 nM.

In the case of `Cn1cc(-c2csc(-c3cccc(F)c3)n2)c2cccnc21`, the GI50 was 20000 nM and the TGI stood at 55600 nM.

Take `Cn1cc(C2=C(c3cn(CCCN=C(N)N)c4ccccc34)C(=O)NC2=O)c2ccccc21`: the GI50 is > 11200 nM and the TGI was > 25000 nM.

Consider `COc1ccc(-c2nc(-c3nc4ccc(C)cc4[nH]3)c3ccccn23)cc1`, for which the GI50 was 2320 nM and the TGI was 7130 nM.

Turning to `CC12CCCC(CC(=O)c3[nH]c4ccccc4c31)C2` (centres undefined), the GI50 was 375 nM and the TGI amounted to 4160 nM.

With `Cc1[nH]c(N=Nc2ccccc2)nc1N=Nc1ccccc1`, the GI50 was 1920 nM and the TGI stood at 5990 nM.

Take `C[C@]12CC[C@@H]3c4ccc(O)cc4CC[C@H]3[C@@H]1CC[C@@H]2NS(=O)(=O)c1ccc(C(F)(F)F)cc1`: the GI50 was 2180 nM and the TGI amounted to 6230 nM.

Turning to `CCCCC/C=C/C/C=C/CCCCCCCC1=NC(C)(C)CN1C(C)C`, the GI50 is 1370 nM and the TGI stood at 2720 nM.

Consider `Cc1cc(C2CCCCC2)n(O)c(=O)c1`, for which the GI50 was 1720 nM and the TGI was determined as 8960 nM.

With `C[C@]12CC[C@@H]3c4ccc(Oc5nc(N6CC6)nc(N6CC6)n5)cc4CC[C@H]3[C@@H]1CCC2=O`, the GI50 is 2000 nM and the TGI is 12600 nM.

Take `COc1ccc(C(=O)/C=C/c2cccnc2Nc2cc(OC)c(OC)c(OC)c2)cc1`: the GI50 was 551 nM and the TGI amounted to 2760 nM.

On to `COc1ccc(-c2cc3c(nn2)-c2ccccc2C3=O)cc1`, for which the GI50 was > 100000 nM and the TGI was > 100000 nM.

For `CN(C)CCNc1ccc2ncc(C#Cc3cncc(C(=O)Nc4ccc(CN5CCN(C)CC5)c(C(F)(F)F)c4)c3)n2n1`, the GI50 was 617 nM and the TGI came to 1410 nM.

Turning to `COc1cccc(NCc2nnc(Nc3ccc(Cl)cc3)c3ccccc23)c1`, the GI50 is 1050 nM and the TGI came to 4730 nM.
